pIC50: −log10 of the molar value.
Target: JAK2 (Homo sapiens, UniProt O60674)
Experiment: JAK2 Tyrosine Kinase Assay
Format: biochemical
Settings: list of named compounds; read-out: IC50 in the JAK2 assay
Description: JAK2 Tyrosine Kinase Assay
The assays were performed in V-bottom 384-well plates. […] The reaction was initiated by the combination of JAK2 with substrates and test compounds. The reaction was incubated at room temperature for 60 min. and terminated by adding 45 μl of 35 mM EDTA to each sample. The reaction mixture was analyzed on the Caliper LabChip 3000 by electrophoretic separation of the fluorescent substrate and phosphorylated product. […] Compounds were dissolved at 10 mM in dimethylsulfoxide (DMSO) and evaluated at eleven concentrations, each in duplicate. IC50 values were derived by non-linear regression analysis

Chain of JAK2 (O60674 whole entry): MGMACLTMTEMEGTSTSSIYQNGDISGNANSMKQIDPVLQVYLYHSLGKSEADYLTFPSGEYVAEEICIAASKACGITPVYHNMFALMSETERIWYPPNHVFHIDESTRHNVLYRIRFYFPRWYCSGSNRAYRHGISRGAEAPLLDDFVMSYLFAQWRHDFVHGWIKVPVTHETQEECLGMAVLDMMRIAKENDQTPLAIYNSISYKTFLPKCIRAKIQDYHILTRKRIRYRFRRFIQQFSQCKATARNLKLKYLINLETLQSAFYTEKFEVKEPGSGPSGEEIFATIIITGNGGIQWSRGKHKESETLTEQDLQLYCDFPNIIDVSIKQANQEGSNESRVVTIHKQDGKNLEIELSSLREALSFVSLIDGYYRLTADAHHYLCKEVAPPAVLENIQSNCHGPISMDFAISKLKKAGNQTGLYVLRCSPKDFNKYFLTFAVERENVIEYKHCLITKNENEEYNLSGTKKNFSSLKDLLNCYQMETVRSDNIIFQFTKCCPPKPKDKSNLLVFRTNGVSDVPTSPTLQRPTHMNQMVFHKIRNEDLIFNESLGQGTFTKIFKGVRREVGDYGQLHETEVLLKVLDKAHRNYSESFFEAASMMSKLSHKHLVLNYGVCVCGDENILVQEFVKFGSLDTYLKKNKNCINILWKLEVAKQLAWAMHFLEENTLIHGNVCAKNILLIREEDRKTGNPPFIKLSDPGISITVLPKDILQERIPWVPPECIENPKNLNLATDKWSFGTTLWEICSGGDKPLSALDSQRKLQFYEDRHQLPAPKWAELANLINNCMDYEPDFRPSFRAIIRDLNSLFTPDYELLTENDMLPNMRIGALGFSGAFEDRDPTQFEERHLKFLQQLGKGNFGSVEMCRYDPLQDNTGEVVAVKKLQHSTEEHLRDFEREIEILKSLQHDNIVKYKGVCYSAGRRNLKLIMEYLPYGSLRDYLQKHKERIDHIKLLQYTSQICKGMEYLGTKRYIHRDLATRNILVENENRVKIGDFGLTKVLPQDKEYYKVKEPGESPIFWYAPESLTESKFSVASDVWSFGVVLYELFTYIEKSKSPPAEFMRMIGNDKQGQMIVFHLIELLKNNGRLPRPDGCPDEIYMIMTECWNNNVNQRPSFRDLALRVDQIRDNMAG

| Structure (SMILES) | pIC50 |
| --- | --- |
| Cc1cc(Nc2nc(N3CCN(C(=O)C(O)c4c(F)cccc4F)CC3)nn3cccc23)n[nH]1 (stereo not shown) [1-(2,6-difluorophenyl)-2-(4-(4-((5-methyl-1H-pyrazol-3-yl)amino)pyrrolo[2,1-f][1,2,4]triazin-2-yl)-1-piperazinyl)-2-oxoethanol] | ≥ 8.30 |
| Cc1cc(Nc2nc(N3CCN(C(=O)C(O)c4ccccc4F)CC3)nn3cccc23)n[nH]1 (stereo not shown) [1-(2-fluorophenyl)-2-(4-(4-((5-methyl-1H-pyrazol-3-yl)amino)pyrrolo[2,1-f][1,2,4]triazin-2-yl)-1-piperazinyl)-2-oxoethanol] | ≥ 8.30 |
| Cc1cc(Nc2nc(N3CCN(C(=O)C(O)c4ccc(Cl)cc4)CC3)nn3cccc23)n[nH]1 (stereo not shown) [1-(4-chlorophenyl)-2-(4-(4-((5-methyl-1H-pyrazol-3-yl)amino)pyrrolo[2,1-f][1,2,4]triazin-2-yl)-1-piperazinyl)-2-oxoethanol] | ≥ 8.30 |
| Cc1cc(Nc2nc(N3CCN(C(=O)C(O)c4ccc(F)cc4)CC3)nn3cccc23)n[nH]1 (stereo not shown) [1-(4-fluorophenyl)-2-(4-(4-((5-methyl-1H-pyrazol-3-yl)amino)pyrrolo[2,1-f][1,2,4]triazin-2-yl)-1-piperazinyl)-2-oxoethanol] | ≥ 8.30 |
| Cc1cc(Nc2nc(N3CCN(C(=O)C4(C#N)CC4)CC3)nn3cccc23)n[nH]1 [1-((4-(4-((5-methyl-1H-pyrazol-3-yl)amino)pyrrolo[2,1-f][1,2,4]triazin-2-yl)-1-piperazinyl)carbonyl)cyclopropanecarbonitrile] | ≥ 8.30 |
| Cc1cc(Nc2nc(N3CCN(C(=O)Cc4ccccc4C#N)CC3)nn3cccc23)n[nH]1 [2-(2-(4-(4-((5-methyl-1H-pyrazol-3-yl)amino)pyrrolo[2,1-f][1,2,4]triazin-2-yl)-1-piperazinyl)-2-oxoethyl)benzonitrile] | ≥ 8.30 |
| CCC(C)(C)C(=O)N1CCN(c2nc(Nc3cc(C)[nH]n3)c3cccn3n2)CC1 [2-(4-(2,2-dimethylbutanoyl)-1-piperazinyl)-N-(5-methyl-1H-pyrazol-3-yl)pyrrolo[2,1-f][1,2,4]triazin-4-amine] | ≥ 8.30 |
| Cc1cc(Nc2nc(N3CCN(C(=O)c4ccc(Cl)cc4Cl)CC3)nn3cccc23)n[nH]1 [2-(4-(2,4-dichlorobenzoyl)-1-piperazinyl)-N-(5-methyl-1H-pyrazol-3-yl)pyrrolo[2,1-f][1,2,4]triazin-4-amine] | ≥ 8.30 |
| Cc1cc(Nc2nc(N3CCN(C(=O)c4cc(Cl)ccc4Cl)CC3)nn3cccc23)n[nH]1 [2-(4-(2,5-dichlorobenzoyl)-1-piperazinyl)-N-(5-methyl-1H-pyrazol-3-yl)pyrrolo[2,1-f][1,2,4]triazin-4-amine] | ≥ 8.30 |
| Cc1cc(Nc2nc(N3CCN(C(=O)c4cc(C)oc4C)CC3)nn3cccc23)n[nH]1 [2-(4-(2,5-dimethyl-3-furoyl)-1-piperazinyl)-N-(5-methyl-1H-pyrazol-3-yl)pyrrolo[2,1-f][1,2,4]triazin-4-amine] | ≥ 8.30 |
| Cc1cc(Nc2nc(N3CCN(C(=O)c4ccccc4-c4c(C)n[nH]c4C)CC3)nn3cccc23)n[nH]1 [2-(4-(2-(3,5-dimethyl-1H-pyrazol-4-yl)benzoyl)-1-piperazinyl)-N-(5-methyl-1H-pyrazol-3-yl)pyrrolo[2,1-f][1,2,4]triazin-4-amine] | ≥ 8.30 |
| Cc1cc(Nc2nc(N3CCN(C(=O)C(C)(C)c4ccc(Cl)cc4)CC3)nn3cccc23)n[nH]1 [2-(4-(2-(4-chlorophenyl)-2-methylpropanoyl)-1-piperazinyl)-N-(5-methyl-1H-pyrazol-3-yl)pyrrolo[2,1-f][1,2,4]triazin-4-amine] | ≥ 8.30 |
| Cc1cc(Nc2nc(N3CCN(C(=O)C(c4ccc(Cl)cc4)C(C)C)CC3)nn3cccc23)n[nH]1 (stereo not shown) [2-(4-(2-(4-chlorophenyl)-3-methylbutanoyl)-1-piperazinyl)-N-(5-methyl-1H-pyrazol-3-yl)pyrrolo[2,1-f][1,2,4]triazin-4-amine] | ≥ 8.30 |
| Cc1cc(Nc2nc(N3CCN(C(=O)C(C)c4ccc(Cl)cc4)CC3)nn3cccc23)n[nH]1 (stereo not shown) [2-(4-(2-(4-chlorophenyl)propanoyl)-1-piperazinyl)-N-(5-methyl-1H-pyrazol-3-yl)pyrrolo[2,1-f][1,2,4]triazin-4-amine] | ≥ 8.30 |
| Cc1cc(Nc2nc(N3CCN(C(=O)c4ccccc4Br)CC3)nn3cccc23)n[nH]1 [2-(4-(2-bromobenzoyl)-1-piperazinyl)-N-(5-methyl-1H-pyrazol-3-yl)pyrrolo[2,1-f][1,2,4]triazin-4-amine] | ≥ 8.30 |
| Cc1cc(Nc2nc(N3CCN(C(=O)c4cc(F)c(F)cc4Cl)CC3)nn3cccc23)n[nH]1 [2-(4-(2-chloro-4,5-difluorobenzoyl)-1-piperazinyl)-N-(5-methyl-1H-pyrazol-3-yl)pyrrolo[2,1-f][1,2,4]triazin-4-amine] | ≥ 8.30 |
| Cc1cc(Nc2nc(N3CCN(C(=O)c4c(F)cccc4Cl)CC3)nn3cccc23)n[nH]1 [2-(4-(2-chloro-6-fluorobenzoyl)-1-piperazinyl)-N-(5-methyl-1H-pyrazol-3-yl)pyrrolo[2,1-f][1,2,4]triazin-4-amine] | ≥ 8.30 |

| Structure (SMILES) | pIC50 |
| --- | --- |
| Cc1cc(Nc2nc(N3CCN(C(=O)c4c(C)cccc4Cl)CC3)nn3cccc23)n[nH]1 [2-(4-(2-chloro-6-methylbenzoyl)-1-piperazinyl)-N-(5-methyl-1H-pyrazol-3-yl)pyrrolo[2,1-f][1,2,4]triazin-4-amine] | ≥ 8.30 |
| Cc1cc(Nc2nc(N3CCN(C(=O)c4c(F)cccc4C(F)(F)F)CC3)nn3cccc23)n[nH]1 [2-(4-(2-fluoro-6-(trifluoromethyl)benzoyl)-1-piperazinyl)-N-(5-methyl-1H-pyrazol-3-yl)pyrrolo[2,1-f][1,2,4]triazin-4-amine] | ≥ 8.30 |
| COc1cccc(F)c1C(=O)N1CCN(c2nc(Nc3cc(C)[nH]n3)c3cccn3n2)CC1 [2-(4-(2-fluoro-6-methoxybenzoyl)-1-piperazinyl)-N-(5-methyl-1H-pyrazol-3-yl)pyrrolo[2,1-f][1,2,4]triazin-4-amine] | ≥ 8.30 |
| Cc1cc(Nc2nc(N3CCN(C(=O)c4ccccc4F)CC3)nn3cccc23)n[nH]1 [2-(4-(2-fluorobenzoyl)-1-piperazinyl)-N-(5-methyl-1H-pyrazol-3-yl)pyrrolo[2,1-f][1,2,4]triazin-4-amine] | ≥ 8.30 |
| Cc1cc(Nc2nc(N3CCN(C(=O)c4cccc(Cl)c4)CC3)nn3cccc23)n[nH]1 [2-(4-(3-chlorobenzoyl)-1-piperazinyl)-N-(5-methyl-1H-pyrazol-3-yl)pyrrolo[2,1-f][1,2,4]triazin-4-amine] | ≥ 8.30 |
| Cc1cc(Nc2nc(N3CCN(C(=O)c4cccc(F)c4)CC3)nn3cccc23)n[nH]1 [2-(4-(3-fluorobenzoyl)-1-piperazinyl)-N-(5-methyl-1H-pyrazol-3-yl)pyrrolo[2,1-f][1,2,4]triazin-4-amine] | ≥ 8.30 |
| Cc1cc(Nc2nc(N3CCN(C(=O)c4ccoc4)CC3)nn3cccc23)n[nH]1 [2-(4-(3-furoyl)-1-piperazinyl)-N-(5-methyl-1H-pyrazol-3-yl)pyrrolo[2,1-f][1,2,4]triazin-4-amine] | ≥ 8.30 |
| COc1cccc(C(=O)N2CCN(c3nc(Nc4cc(C)[nH]n4)c4cccn4n3)CC2)c1 [2-(4-(3-methoxybenzoyl)-1-piperazinyl)-N-(5-methyl-1H-pyrazol-3-yl)pyrrolo[2,1-f][1,2,4]triazin-4-amine] | ≥ 8.30 |
| Cc1cccc(C(=O)N2CCN(c3nc(Nc4cc(C)[nH]n4)c4cccn4n3)CC2)c1 [2-(4-(3-methylbenzoyl)-1-piperazinyl)-N-(5-methyl-1H-pyrazol-3-yl)pyrrolo[2,1-f][1,2,4]triazin-4-amine] | ≥ 8.30 |
| Cc1cc(Nc2nc(N3CCN(C(=O)c4ccc(F)cc4)CC3)nn3cccc23)n[nH]1 [2-(4-(4-fluorobenzoyl)-1-piperazinyl)-N-(5-methyl-1H-pyrazol-3-yl)pyrrolo[2,1-f][1,2,4]triazin-4-amine] | ≥ 8.30 |
| COc1ccc(C(=O)N2CCN(c3nc(Nc4cc(C)[nH]n4)c4cccn4n3)CC2)cc1 [2-(4-(4-methoxybenzoyl)-1-piperazinyl)-N-(5-methyl-1H-pyrazol-3-yl)pyrrolo[2,1-f][1,2,4]triazin-4-amine] | ≥ 8.30 |
| Cc1cc(Nc2nc(N3CCN(C(=O)C4(c5c(F)cccc5Cl)CCCCC4)CC3)nn3cccc23)n[nH]1 [2-(4-((1-(2-chloro-6-fluorophenyl)cyclohexyl)carbonyl)-1-piperazinyl)-N-(5-methyl-1H-pyrazol-3-yl)pyrrolo[2,1-f][1,2,4]triazin-4-amine] | ≥ 8.30 |
| Cc1ccc(C2(C(=O)N3CCN(c4nc(Nc5cc(C)[nH]n5)c5cccn5n4)CC3)CCCCC2)cc1 [2-(4-((1-(4-methylphenyl)cyclohexyl)carbonyl)-1-piperazinyl)-N-(5-methyl-1H-pyrazol-3-yl)pyrrolo[2,1-f][1,2,4]triazin-4-amine] | ≥ 8.30 |
| Cc1cc(Nc2nc(N3CCN(C(=O)C4(C)CC4)CC3)nn3cccc23)n[nH]1 [2-(4-((1-methylcyclopropyl)carbonyl)-1-piperazinyl)-N-(5-methyl-1H-pyrazol-3-yl)pyrrolo[2,1-f][1,2,4]triazin-4-amine] | ≥ 8.30 |
| Cc1cc(Nc2nc(N3CCN(C(=O)Cc4c(Cl)cccc4Cl)CC3)nn3cccc23)n[nH]1 [2-(4-((2,6-dichlorophenyl)acetyl)-1-piperazinyl)-N-(5-methyl-1H-pyrazol-3-yl)pyrrolo[2,1-f][1,2,4]triazin-4-amine] | ≥ 8.30 |
| Cc1cc(Nc2nc(N3CCN(C(=O)Cc4c(F)cccc4F)CC3)nn3cccc23)n[nH]1 [2-(4-((2,6-difluorophenyl)acetyl)-1-piperazinyl)-N-(5-methyl-1H-pyrazol-3-yl)pyrrolo[2,1-f][1,2,4]triazin-4-amine] | ≥ 8.30 |
| Cc1cc(Nc2nc(N3CCN(C(=O)Cc4ccccc4Br)CC3)nn3cccc23)n[nH]1 [2-(4-((2-bromophenyl)acetyl)-1-piperazinyl)-N-(5-methyl-1H-pyrazol-3-yl)pyrrolo[2,1-f][1,2,4]triazin-4-amine] | ≥ 8.30 |
